From patent US20240148821A1, “PHARMACEUTICAL USE OF CYCLIC PEPTIDE COMPOUND” (CHUGAI SEIYAKU KABUSHIKI KAISHA, priority 2021, published 2024)
pIC50: −log10 of the molar value. Numbered stars: 1 amine (or outer) side, 2 acyl side, 3 side chain; on linkers, the order of the positions; unused ones are H or OH. Bridge positions count the residues as written; N and C are the ends. Square brackets hold non-standard residues; d marks the D form. Peptide text beside a SMILES is read from it. * marks the point of attachment. hPhe(3-Cl-4-CF3) = N[C@@H](CCc1ccc(C(F)(F)F)c(Cl)c1)C(=O)O; X27 = CN([C@@H](Cc1ccc(C(F)(F)F)nc1)C(=O)[*:2])[*:1]; NMePhe(4-CF3) = CN[C@@H](Cc1ccc(C(F)(F)F)cc1)C(=O)O; X15 = O=C([C@H](CCc1cc(Cl)c(Cl)c(Cl)c1)N[*:1])[*:2]; 3Oxa8azabicyclo(3.2.1)octane = C1CC2COCC1N2*; NMePhe(4-Me) = CN[C@@H](Cc1ccc(C)cc1)C(=O)O; NMeNva(5,5-F2) = CN[C@@H](CCC(F)F)C(=O)O; NMeGly(cPent) = CN[C@H](C(=O)O)C1CCCC1; Pro(4,4-F2) = O=C(O)[C@@H]1CC(F)(F)CN1; X26 = CC(C)=CC[C@H](N[*:1])C(=O)[*:2]; NMeCha = CN[C@@H](CC1CCCCC1)C(=O)O; Hyp = O=C(O)[C@@H]1C[C@@H](O)CN1; NMeChg = CN[C@H](C(=O)O)C1CCCCC1; NMeI = CC[C@H](C)[C@H](NC)C(=O)O; Cha = N[C@@H](CC1CCCCC1)C(=O)O; NMeD = CN[C@@H](CC(=O)O)C(=O)O; NMeL = CN[C@@H](CC(C)C)C(=O)O; NMeV = CN[C@H](C(=O)O)C(C)C; d(β3hA) = C[C@@H](N)CC(=O)O; Azetidin(1-yl) = C1CN(*)C1; NMeAbu = CC[C@H](NC)C(=O)O; NMeC = CN[C@@H](CS)C(=O)O; Morpholide = C1CN(*)CCO1; NMeA = CN[C@@H](C)C(=O)O; Piperidide = C1CCN(*)CC1; Pyrrolidide = C1CCN(*)C1; dNMeA = CN[C@H](C)C(=O)O; Ac5c = NC1(C(=O)O)CCCC1; Aze = O=C(O)[C@@H]1CCN1; Sar = CNCC(=O)O

Columns and labels:
[1] = target: protein-protein interaction between Kras and SOS1 (biotin-tagged human Kras loaded with GDP, His-tagged human SOS1) (Homo sapiens (Human), UniProt P01116, G12D); experiment: Protein-protein interaction inhibition between Kras and SOS1 (KrasG12D-SOS PPI) using AlphaScreen; assay type: biochemical; settings: AlphaScreen; biotin-tagged human Kras loaded with GDP, His-tagged human SOS1; read-out: KRAS G12D-SOS PPI IC50;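 further: kras produced in E. coli, Ni-coupled donor beads and streptavidin acceptor beads, excitation 680 nm with emission detected at 520–620 nm via singlet oxygen transfer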
[2] = system: Human pancreatic cancer cell line AsPC-1 (G12D mutation Kras); experiment: AsPC-1 cell growth inhibition (AsPC-1 CGI); assay type: cell-based; settings: read-out: AsPC-1 cell growth inhibition, 50% growth inhibitory concentration (IC50 value); 96 hours, CellTiter-Glo, values classified in ranges
Procedure: Test compounds were serially dilated with dimethyl sulfoxide, and 200 nL was then dispensed to a U-bottom 96-well plate using Labcyte Echo. […] The cell suspension was dispensed to a. plate containing a test compound at 100 μL per well and incubated at 37° C. in a 5% carbon dioxide gas incubator. 96 hours later, 80 μL of CellTiter-Glo (Promega) was added to each well and fluorescence was measured.

SMILES | pIC50 [1] | pIC50 [2]
CC[C@H](C)[C@@H]1NC(=O)[C@H](C)N(C)C(=O)C[C@@H](C(=O)N2CCCCC2)N(C)C(=O)[C@H](C(C)C)N(C)C(=O)C2(CCCC2)NC(=O)[C@@H]2CCCN2C(=O)[C@H](CCc2cc(Cl)c(Cl)c(Cl)c2)NC(=O)CN(C)C(=O)[C@H](CC2CCCCC2)N(C)C(=O)CN(C)C(=O)CN(C)C1=O [Compound 2068, (3S,9S,18S,21S,25S,28S,34S)-9-(cyclohexylmethyl)-28-isopropyl-7,10,13,16,21,22,26,29-octamethyl-18-[(1S)-1-methylpropyl]-25-(piperidine-1-carbonyl)-3-[2-(3,4,5-trichlorophenyl)ethyl]spiro[1,4,7,10,13,16,19,22,26,29,32-undecazabicyclo[32.3.0]heptatriacontane-31,1′-cylopentane]-2,5,8,11,14,17,20,23,27,30,33-undecone] ([NMeA]I[Sar][Sar][NMeCha][Sar][X15]P[Ac5c][NMeV][NMeD]-Piperidide; lactam N-11) | 8.77 | < 6.30
CC[C@H](C)[C@@H]1NC(=O)[C@H](CC(C)C)N(C)C(=O)C[C@@H](C(=O)N2CCCCC2)N(C)C(=O)[C@H](CC)N(C)C(=O)C2(CCCC2)NC(=O)[C@@H]2CCCN2C(=O)[C@H](CCc2ccc(C(F)(F)F)c(Cl)c2)NC(=O)CN(C)C(=O)[C@H](CC2CCCCC2)N(C)C(=O)[C@@H]2CCN2C(=O)[C@H](C)N(C)C1=O [Compound 1678] ([NMeL]I[NMeA][Aze][NMeCha][Sar][hPhe(3-Cl-4-CF3)]P[Ac5c][NMeAbu][NMeD]-Piperidide; lactam N-11) | 7.59 | < 6.30
CC[C@H](C)[C@@H]1NC(=O)[C@H](CC(C)C)N(C)C(=O)C[C@@H](C(=O)N2CCOCC2)N(C)C(=O)[C@H]([C@@H](C)CC)N(C)C(=O)C2(CCCC2)NC(=O)[C@@H]2CCCN2C(=O)[C@H](CCc2ccc(C(F)(F)F)c(Cl)c2)NC(=O)CN(C)C(=O)[C@H](C2CCCC2)N(C)C(=O)[C@@H]2CCN2C(=O)[C@H](C)N(C)C1=O [Compound 381] ([NMeL]I[NMeA][Aze][NMeGly(cPent)][Sar][hPhe(3-Cl-4-CF3)]P[Ac5c][NMeI][NMeD]-Morpholide; lactam N-11) | 8.80 | ≥ 7.70
CC[C@H](C)[C@@H]1NC(=O)[C@H](CC(C)C)N(C)C(=O)C[C@@H](C)NC(=O)[C@H](C2CCCC2)N(C)C(=O)C2(CCCC2)NC(=O)[C@@H]2CCCN2C(=O)[C@H](CCc2ccc(C(F)(F)F)c(Cl)c2)NC(=O)[C@@H](C)N(C)C(=O)[C@H](Cc2ccc(C)cc2)N(C)C(=O)[C@@H]2CCN2C(=O)CN(C)C1=O [Compound 1517] (cyclo([Ac5c][NMeGly(cPent)][d(β3hA)][NMeL]I[Sar][Aze][NMePhe(4-Me)][dNMeA][hPhe(3-Cl-4-CF3)]P)) | 7.31 | < 6.30
CC[C@H](C)[C@@H]1NC(=O)[C@H](CC(C)C)N(C)C(=O)C[C@@H](C(=O)N2CCCCC2)N(C)C(=O)[C@H](CCC(F)F)N(C)C(=O)C2(CCCC2)NC(=O)[C@@H]2CCCN2C(=O)[C@H](CCc2ccc(C(F)(F)F)c(Cl)c2)NC(=O)CN(C)C(=O)[C@H](CC2CCCCC2)N(C)C(=O)[C@@H]2CCN2C(=O)[C@H](C)N(C)C1=O [Compound 1660] ([NMeL]I[NMeA][Aze][NMeCha][Sar][hPhe(3-Cl-4-CF3)]P[Ac5c][NMeNva(5,5-F2)][NMeD]-Piperidide; lactam N-11) | 7.80 | < 6.30
CC[C@H](C)[C@@H]1NC(=O)[C@H](CC(C)C)N(C)C(=O)C[C@@H](C(=O)N2CCCCC2)N(C)C(=O)[C@H](C(C)C)N(C)C(=O)[C@H](C)NC(=O)[C@@H]2CCCN2C(=O)[C@H](CCc2ccc(C(F)(F)F)c(Cl)c2)NC(=O)CN(C)C(=O)[C@H](CC2CCCCC2)N(C)C(=O)[C@@H]2CCN2C(=O)[C@H](C)N(C)C1=O [Compound 1211] ([NMeL]I[NMeA][Aze][NMeCha][Sar][hPhe(3-Cl-4-CF3)]PA[NMeV][NMeD]-Piperidide; lactam N-11) | 7.51 | < 6.30
CC[C@H](C)[C@@H]1NC(=O)[C@H](C)N(C)C(=O)C[C@@H](C)NC(=O)[C@H](C2CCCC2)N(C)C(=O)C2(CCCC2)NC(=O)[C@@H]2CCCN2C(=O)[C@H](CCc2ccc(C(F)(F)F)c(Cl)c2)NC(=O)CN(C)C(=O)[C@H](Cc2ccc(C)cc2)N(C)C(=O)[C@@H]2CCCN2C(=O)CN(C)C1=O [Compound 151] (cyclo([Ac5c][NMeGly(cPent)][d(β3hA)][NMeA]I[Sar]P[NMePhe(4-Me)][Sar][hPhe(3-Cl-4-CF3)]P)) | 8.30 | < 6.30
CC[C@H](C)[C@@H]1NC(=O)[C@H](CC(C)C)N(C)C(=O)C[C@@H](C(=O)N2CCCCC2)N(C)C(=O)[C@H](C2CCCCC2)N(C)C(=O)C2(CCCC2)NC(=O)[C@H](Cc2ccc(C(F)(F)F)nc2)N(C)C(=O)[C@H](CCc2ccc(C(F)(F)F)c(Cl)c2)NC(=O)CN(C)C(=O)[C@H](CC2CCCCC2)N(C)C(=O)CN(C)C(=O)CN(C)C1=O [Compound 10] ([NMeL]I[Sar][Sar][NMeCha][Sar][hPhe(3-Cl-4-CF3)][X27][Ac5c][NMeChg][NMeD]-Piperidide; lactam N-11) | 7.74 | < 6.30
CC[C@H](C)[C@@H]1NC(=O)[C@H](CC(C)C)N(C)C(=O)C[C@@H](C(=O)N2CCCC2)N(C)C(=O)[C@H]([C@@H](C)CC)N(C)C(=O)C2(CCCC2)NC(=O)[C@@H]2CC(F)(F)CN2C(=O)[C@H](CCc2ccc(C(F)(F)F)c(Cl)c2)NC(=O)CN(C)C(=O)[C@H](Cc2ccc(C(F)(F)F)cc2)N(C)C(=O)[C@@H]2CCN2C(=O)[C@H](C)N(C)C1=O [Compound 1242] ([NMeL]I[NMeA][Aze][NMePhe(4-CF3)][Sar][hPhe(3-Cl-4-CF3)][Pro(4,4-F2)][Ac5c][NMeI][NMeD]-Pyrrolidide; lactam N-11) | 9.28 | ≥ 7.70
CC[C@H](C)[C@@H]1NC(=O)[C@H](CC(C)C)N(C)C(=O)C[C@@H](C)NC(=O)[C@H](CC(C)C)N(C)C(=O)C2(CCCC2)NC(=O)[C@H](CC(C)C)N(C)C(=O)[C@H](CCc2ccc(C(F)(F)F)c(Cl)c2)NC(=O)CN(C)C(=O)[C@H](CC2CCCCC2)N(C)C(=O)CN(C)C(=O)CN(C)C1=O [Compound 217] (cyclo([Ac5c][NMeL][d(β3hA)][NMeL]I[Sar][Sar][NMeCha][Sar][hPhe(3-Cl-4-CF3)][NMeL])) | 7.18 | < 6.30
CCO[C@@H]1C[C@H]2C(=O)NC3(CCCC3)C(=O)N(C)[C@@H](C3CCCCC3)C(=O)N(C)[C@H](C(=O)N3C4CCC3COC4)CC(=O)N(C)[C@@H](CC(C)C)C(=O)N[C@@H]([C@@H](C)CC)C(=O)N(C)CC(=O)N(C)CC(=O)N(C)[C@@H](CC3CCCCC3)C(=O)N(C)CC(=O)N[C@@H](CCc3ccc(C(F)(F)F)c(Cl)c3)C(=O)N2C1 [Compound 1977] ([NMeL]I[Sar][Sar][NMeCha][Sar][hPhe(3-Cl-4-CF3)][Hyp](Et)[Ac5c][NMeChg][NMeD]-{3Oxa8azabicyclo(3.2.1)octane}; lactam N-11) | 9.33 | ≥ 7.70
CC(C)=CC[C@@H]1NC(=O)[C@H](CC(C)C)N(C)C(=O)C[C@@H](C(=O)N2CCCCC2)N(C)C(=O)[C@H](C(C)C)N(C)C(=O)C2(CCCC2)NC(=O)[C@@H]2CCCN2C(=O)[C@H](CCc2ccc(C(F)(F)F)c(Cl)c2)NC(=O)CN(C)C(=O)[C@H](CC2CCCCC2)N(C)C(=O)[C@@H]2CCN2C(=O)[C@H](C)N(C)C1=O [Compound 729] ([NMeL][X26][NMeA][Aze][NMeCha][Sar][hPhe(3-Cl-4-CF3)]P[Ac5c][NMeV][NMeD]-Piperidide; lactam N-11) | 7.37 | < 6.30
CC[C@H](C)[C@@H]1NC(=O)[C@H](CC(C)C)N(C)C(=O)CSC[C@@H](C(=O)N(C)C)N(C)C(=O)[C@H](C2CCCC2)N(C)C(=O)C2(CCCC2)NC(=O)[C@@H]2CCCN2C(=O)[C@H](CCc2ccc(C(F)(F)F)c(Cl)c2)NC(=O)CN(C)C(=O)[C@H](CC2CCCCC2)N(C)C(=O)CN(C)C(=O)CN(C)C1=O [Compound 2175] ({CH2CO}-[NMeL]I[Sar][Sar][NMeCha][Sar][hPhe(3-Cl-4-CF3)]P[Ac5c][NMeGly(cPent)][NMeC]-NMe2; thioether N-11) | 6.74 | < 6.30
CC[C@H](C)[C@@H]1NC(=O)[C@H](CC(C)C)N(C)C(=O)C[C@@H](C(=O)N2CCC2)N(C)C(=O)[C@H](C2CCCC2)N(C)C(=O)C2(CCCC2)NC(=O)[C@@H]2CC(F)(F)CN2C(=O)[C@H](CCc2ccc(C(F)(F)F)c(Cl)c2)NC(=O)CN(C)C(=O)[C@H](CC2CCCCC2)N(C)C(=O)[C@@H]2CCN2C(=O)[C@H](C)N(C)C1=O [Compound 1283] ([NMeL]I[NMeA][Aze][NMeCha][Sar][hPhe(3-Cl-4-CF3)][Pro(4,4-F2)][Ac5c][NMeGly(cPent)][NMeD]-{Azetidin(1-yl)}; lactam N-11) | 9.20 | ≥ 7.70
CC(C)C[C@H]1C(=O)N[C@@H](CC2CCCCC2)C(=O)N(C)CC(=O)N(C)CC(=O)N(C)[C@@H](CC2CCCCC2)C(=O)N(C)CC(=O)N[C@@H](CCc2ccc(C(F)(F)F)c(Cl)c2)C(=O)N2CCC[C@H]2C(=O)NC2(CCCC2)C(=O)N(C)[C@@H](C2CCCCC2)C(=O)N(C)[C@H](C(=O)N2CCCCC2)CC(=O)N1C [Compound 1] ([NMeL][Cha][Sar][Sar][NMeCha][Sar][hPhe(3-Cl-4-CF3)]P[Ac5c][NMeChg][NMeD]-Piperidide; lactam N-11) | 8.23 | < 6.30
